From patent US20060199772A1, “Use of a proteasome inhibitor in the treatment of endothelial dysfunction and/or in a low-dose proteasome inhibitor therapy” (Charite'-Universitaetsmedizin Berlin, priority 2002, published 2006)
“Also recorded” adds a separate entry of the source. Where a SMILES comes first, the peptide text is derived from it. The star is where a group is joined. Cbz = O=C(OCc1ccccc1)*

How the values were obtained:
eNOS mRNA [1] = experiment: eNOS mRNA levels by real-time RT-PCR in CPAE cells; type: cell-based, bovine
Method: (§1) The bovine pulmonary artery endothelial cell line (CPAE cells) was purchased from the American Type Culture Collection (ATCC, # CCL-209) and was cultured in MEM supplemented with 5% FCS, 1.5 g/L sodium bicarbonate, 0.11 g/L sodium pyruvate, 100 U/mL penicillin, and 100 μg/ml streptomycin. Human umbilical vein endothelial cells (HUVECs) were isolated and cultured as described previously (Stangl et al. Homocysteine inhibits TNF-α-induced endothelial adhesion molecule expression and monocyte adhesion via nuclear factor-κB dependent pathwas. Biochem Biophys Commun. 2001; 280:1093-1100). Purity of HU-VECs was assessed by von Willebrand factor staining. For experiments, cells were seeded onto […] dishes and were treated with either proteasome inhibitors MG132, MG262, with the non-proteasomal cathepsin inhibitor ALLM, or with solvent (DMSO) for the times and concentrations indicated. In some experiments, the transcription inhibitor α-amanitin (2.5 μg/mL) was pre-incubated one hour before addition of proteasome inhibitor. Cell viability was assessed by trypan blue exclusion. For HUVECs, the inventors used only second- to third-passage cells for all experiments. For phalloidin-DAPI double staining, cells were fixed with 4% paraformaldehyde, permeabilized with 1% Triton, and blocked with 1% FCS. The inventors took cell photos with a Zeiss camera and analysed them with Axiovert 3.0 software.
After treatment, cells were lysed in Trizol reagent (Gibco Life Technologies, Karlsruhe, Germany) and 800 ng of total RNA were reversed transcribed with random hexamers. Primer sequences were synthesized by TIB Molbiol (Berlin, Germany), and TaqMan probes by Eurogentec (Seraing, Belgium). Table 1 summarizes the sequences of primers and probes used in this study. mRNA expression was standardized to the HPRT (hypoxanthine phosphoribosyl transferase) gene as a housekeeping gene, the transcription level of which were not influenced under our experimental conditions. PCR amplification was carried out in 25 μL TaqMan Universal PCR Master Mix (Perkin Elmer Applied Biosystems, Foster City, Calif.) containing either 0.3 or 0.9/μmol/L primer, 0.2/μmol/L TaqMan probe, and 1 μl of the reverse transcription reaction in a 5700 Sequence Detection System (Perkin Elmer Applied Biosystems). Thermal cycling conditions comprised an initial denaturation step at 95° C. for 10 minutes, followed by 95° C. for 15 seconds and 60° C. for 1 minute for 40 cycles. Size and purity of the amplification products were verified on a 20% PAA gel. The CT (threshold cycle) is defined as the number of cycles required for the fluorescence signal to exceed the detection threshold. The expression of the target gene relative to the housekeeping gene was calculated as the difference between the threshold values for the two genes.
The SYBR Green method was applied for quantitative amplification of bovine eNOS mRNA. In our analysis with the transcription inhibitor α-amanitin—which blocks RNA polymerase II, whereas RNA polymerase I is insensitive to this toxin (Lindell T J et al. Specific inhibition of nuclear RNA polymerase II by alpha-amanitin. Science. 1970; 170: 447-449)—the inventors standardized eNOS mRNA expression to RP29 (ribosomal protein 29) gene as housekeeping gene. Thermal cycling conditions were identical to the TaqMan PCR.

proteasome = experiment: Accumulation of poly-ubiquitinylated proteins (anti-ubiquitin Western blot) in CPAE cells; type: cell-based, bovine
Method: as §1
(§2) After treatment, cells were washed twice with PBS and lysed in extraction buffer containing in mmol/L: Tris/HCl 50 (pH 7.4), KCl 154, glucose 5, EDTA 0.5, PMSF 1, DTT 2, and 1% Triton X-100. Total protein (50 μg per lane) was subjected to SDS-PAGE and membranes were probed with anti-eNOS monoclonal antibody (1:2500) or with anti-ubiquitin antibody (1:1000). Membranes were incubated with secondary anti-mouse antibody (1:2500) conjugated to alkaline phosphatase for eNOS or with anti-rabbit antibody conjugated to horseradish peroxidase (1:10000) for ubiquitin. Bands were visualized by using BCIP and Nitro Blue Tetrazolium (Sigma) for eNOS, and by employing the ECL detection system (Amersham) for ubiquitin.

eNOS [2] = experiment: eNOS protein expression by Western blot in CPAE cells; type: cell-based, bovine; conditions: for upregulation of eNOS protein (specificity comparison with MG132): equipotent doses
Method: as §1, §2

rat aortic rings = experiment: Vasorelaxation studies in pretreated rat aortic rings (organ chamber); type: cell-based; conditions: 48 hours
Method: Thoracic aortas from male Wistar rats were rapidly excised, cleaned of connective tissue, and cut into rings 2 to 3 mm in length for organ-chamber experiments. Rings were incubated with MG132 100 nmol/L, 250 nmol/L, or solvent, or TNF-α (250 pg/ml) in the presence and absence of 250 nM MG132, for 48 hours in MEM at 37° C. containing 50 U/mL penicillin, 50 μg/mL streptomycin, 0.1% BSA, and 1 μg/mL polymyxin B. The rings were then mounted on platinum hooks in 10 ml jacketed organ baths containing modified Krebs-Henseleit solution (composition in mmol/L: NaCl 144, KCl 5.9, CaCli 1.6, MgSO^4− 1.2, KH2PO4^− 1.2, NaHCO3^− 25, and D-glucose 11.1) and diclofenac 1 μmol/L. Tension was gradually adjusted to 2 g over 1 hour. The solution in the bath was kept at 37° C. with a gas mixture of […]. Following equilibration and submaximal precontraction with phenylephrine (0.05 μmol/L), relaxation to increasing concentrations (1 nmol/L to 1 μmol/L) of the endothelium-dependent vasodilator acetylcholine was performed to obtain cumulative concentration-response curves. Selected studies were conducted in rings treated with L-NAME (1 mmol/L) before phenylephrine exposure. Maintenance of smooth-muscle integrity following incubation with the proteasome inhibitor or solvent was confirmed by evaluation of endothelium-independent vasodilation to papaverine (1 nmol/L to 1 μmol/L).

[3] = system: cultured neonatal rat cardiomyocytes; conditions: cited from earlier work
CPAE cells = experiment: Cell viability by trypan blue exclusion; type: cell-based, bovine
Method: as §1, with “For phalloidin-DAPI double staining, cells were fixed with 4% paraformaldehyde, permeabilized with 1% Triton, and blocked with 1% FCS.” left out

eNOS [4] = experiment: eNOS protein expression by Western blot in HUVECs; type: cell-based, human
Method: as §1, with “For phalloidin-DAPI double staining, cells were fixed with 4% paraformaldehyde, permeabilized with 1% Triton, and blocked with 1% FCS.” left out, “software. […]” for “software.”

eNOS mRNA [5] = experiment: eNOS mRNA levels by real-time RT-PCR in HUVECs, with or without TNF-α; type: cell-based, human; conditions: 48 hours
Method: Purity of HU-VECs was assessed by von Willebrand factor staining. For experiments, cells were seeded onto 6-mm diameter dishes and were treated with either proteasome inhibitors MG132, MG262, with the non-proteasomal cathepsin inhibitor ALLM, or with solvent (DMSO) for the times and concentrations indicated. In some experiments, the transcription inhibitor α-amanitin (2.5 μg/mL) was pre-incubated one hour before addition of proteasome inhibitor. Cell viability was assessed by trypan blue exclusion. For HUVECs, the inventors used only second- to third-passage cells for all experiments.
For eNOS expression in HUVECs, cells were treated with DMSO (control), TNF-α (1, 2.5 and 5 ng/ml) and TNF-α (same concentrations) in the presence of 70 nM MG132, for 48 hours, whereupon eNOS mRNA levels were measured (see Method 3).
After treatment, cells were lysed in Trizol reagent (Gibco Life Technologies, Karlsruhe, Germany) and 800 ng of total RNA were reversed transcribed with random hexamers. Primer sequences were synthesized by TIB Molbiol (Berlin, Germany), and TaqMan probes by Eurogentec (Seraing, Belgium). […] The CT (threshold cycle) is defined as the number of cycles required for the fluorescence signal to exceed the detection threshold. The expression of the target gene relative to the housekeeping gene was calculated as the difference between the threshold values for the two genes.

eNOS [6] = experiment: eNOS activity, L-[3H]arginine to L-[3H]citrulline conversion in extracts of treated CPAE cells; type: cell-based, bovine
Method: eNOS activity was assessed by the formation of L-[^3H]citrulline from L-[^3H]arginine after separation of the amino acids by cation exchange chromatography. Endothelial cells were washed with PBS and lysed in the same extraction buffer as for Western blot analysis. The inventors added 50 μg of total protein to the reaction mixture containing 50 mmol/L Hepes pH 7.4, 0.1% Triton X-100, 1 mmol/L EDTA, 1.25 mmol/L CaCl2, 1 mmol/L DTT, 1 μmol/L FAD, 15 μmol/L BH4, 1 mmol/L NADPH, and 1 μCi L-[^3H]arginine. Incubation was performed for 30 minutes at 37° C. Reactions were terminated by adding 0.5 ml of ice-cold Dowex (Na^+ form). L-[^3H]citrulline was separated from L-[^3H]arginine by Dowex chromatography, and L-[^3H]citrulline formation was quantified by liquid scintillation counting. The inventors subtracted the values obtained from samples incubated without cell extracts. […] In some samples, CaCl2 was omitted from the reaction buffer to exclude any contribution of inducible NO synthase (iNOS).

cardiomyocytes = conditions: cited from earlier work
[7] = rat aortic rings pretreated 100 and 250 nmol/L

CC[C@H](C)[C@@H]1NC(=O)CNC(=O)[C@@H]2Cc3c([nH]c4cc(O)ccc34)[S+]([O-])C[C@@H](NC(=O)CNC1=O)C(=O)N[C@@H](CC(N)=O)C(=O)N1C[C@H](O)C[C@H]1C(=O)N[C@@H]([C@@H](C)[C@@H](O)CO)C(=O)N2 (stereo in doubt) [α-amanitin]
effect on overall eNOS mRNA levels (eNOS mRNA [1]; 2.5 μg/mL, pre-incubated 1 hour): reduced overall eNOS mRNA levels

CSCC[C@@H](C=O)NC(=O)[C@H](CC(C)C)NC(=O)[C@H](CC(C)C)NC(C)=O [ALLM, N-acetyl-leucyl-leucyl-methioninal] (Ac-Leu-Leu-Met-aldehyde)
proteasome inhibition (poly-ubiquitinylated proteins), comparison with MG132 (proteasome; corresponding doses): failed to inhibit the proteasome
upregulation of eNOS protein (specificity comparison with MG132) (eNOS [2]): had no effect; also recorded: failed to upregulate eNOS

CC(C)C[C@@H](C=O)NC(=O)[C@H](CC(C)C)NC(=O)[C@H](CC(C)C)NC(=O)OCc1ccccc1 [MG132, N-carbobenzoxy-L-leucinyl-L-leucinyl-L-leucinal] (Cbz-Leu-Leu-Leu-aldehyde)
concentration from which poly-ubiquitinylated proteins accumulate (proteasome): ≥ 50 nmol/L
proteasome inhibition at 20 nmol/L (proteasome; 20 nmol/L): had no proteasomal inhibitory influence
time for which poly-ubiquitinylated proteins are detectable after a single dose (proteasome; 100 nmol/L single dose): three
accumulation of poly-ubiquitinylated proteins (proteasome; 50 to 250 nmol/L): led to accumulation of poly-ubiquitinylated proteins
maximum relaxation to acetylcholine, percentage of phenylephrine precontraction (rat aortic rings; rat aortic rings pretreated 250 nmol/L): 89.4±5.7%
endothelial-independent vasorelaxation in response to papaverine (rat aortic rings; [7]): remained unaffected
endothelium-dependent relaxation to acetylcholine (rat aortic rings; [7]): significantly enhanced
vasoreactivity to acetylcholine of TNF-α-damaged aortic rings (rat aortic rings; rat aortic rings, 250 nM with TNF-α 250 pg/ml): vasoreactivity can be significantly improved
effect on eNOS expression at 20 nmol/L (eNOS [2]; 20 nmol/L): did not affect eNOS expression
time from which eNOS upregulation is significant (eNOS [2]; 50 nmol/L): 24 h
duration of enhanced eNOS protein after a single dose (eNOS [2]; 100 nmol/L single dose): up to 10 days
effect on eNOS protein levels at higher concentrations (eNOS [2]; 500 nmol/L and above): decreased eNOS protein levels
effect on eNOS protein levels at low concentrations (eNOS [2]; 50 to 250 nmol/L): gradually increased eNOS protein levels
time at which the rise of eNOS protein expression began (eNOS [2]; incubation with single dose): 16 h
eNOS protein expression versus control (eNOS [2]; single dose 100 nmol/L, 48 hours): 2.4 fold
time at which upregulation of eNOS mRNA begins (eNOS mRNA [1]): 16 h
time at which eNOS mRNA is still elevated after a single dose (eNOS mRNA [1]; 100 nmol/L single dose): 7 days
maximum eNOS mRNA level, times the control level (eNOS mRNA [1]; 100 nmol/L, 24 hours): 6.5 times the control level
MG132-induced increase in eNOS mRNA after α-amanitin pretreatment (eNOS mRNA [1]; α-amanitin pretreatment 1 hour): without eliminating the increase in mRNA levels induced by MG132
spontaneous beating time of cardiomyocytes at 46° C. ([3]; 1 μM, control hyperthermia 5+/−2 min): 28 ± 5 min
induction of heat shock proteins at mRNA and protein levels [3]: time- and concentration-dependently induced Hsp72 and Hsp32
toxic doses by trypan blue exclusion (CPAE cells): higher than 250 nmol/L
eNOS protein expression in HUVECs (eNOS [4]): dose-dependent increase in eNOS
eNOS mRNA expression in presence of TNF-α versus TNF-α alone (eNOS mRNA [5]; HUVECs, 70 nM with TNF-α 1, 2.5, 5 ng/ml): substantially increased expression of eNOS mRNA
time at which the increase in eNOS activity begins (eNOS [6]): 24 h
duration of enhanced eNOS enzyme activity after a single dose (eNOS [6]; 100 nmol/L single dose): up to 10 days
protective effects at concentrations of less than 1 μM (cardiomyocytes): did not exhibit protective effects

TNF-α
acetylcholine-dependent vasodilatation versus DMSO control (rat aortic rings; rat aortic rings, 250 pg/ml): significantly reduced
eNOS mRNA expression versus DMSO control (eNOS mRNA [5]; HUVECs, 1, 2.5 and 5 ng/ml): reduction and almost abolition of mRNA expression

CC(C)C[C@H](NC(=O)[C@H](CC(C)C)NC(=O)[C@H](CC(C)C)NC(=O)OCc1ccccc1)B(O)O [MG262]
upregulation of eNOS protein (specificity comparison with MG132) (eNOS [2]): also upregulates eNOS; also recorded: Comparable results; also recorded: induced upregulation of eNOS protein to an extent similar to that caused by MG132
